Assay results as given in patent publication US10978281B2, “Method to obtain unbiased identification of interaction of test compounds with the proteome” (Institute for Systems Biology, priority 2015, dated 2021).

How the values were obtained:
[1] = target: Rv0289/EspG3 (Mycobacterium tuberculosis, UniProt P9WJC7)
[2] = target: DHFR (Rv2763c) (Mycobacterium tuberculosis, UniProt P9WNX1); type: binding; details: melting curve, M. tuberculosis lysate; Tm of DHFR without P218 is 57° C.
DHFR (Rv2763c), sequence (P9WNX1 whole entry): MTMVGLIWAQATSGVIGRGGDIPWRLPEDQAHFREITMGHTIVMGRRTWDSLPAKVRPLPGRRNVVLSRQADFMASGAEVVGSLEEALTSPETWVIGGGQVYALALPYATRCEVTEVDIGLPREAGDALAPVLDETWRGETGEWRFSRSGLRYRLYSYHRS

Rv0289/EspG3, sequence (P9WJC7 whole entry): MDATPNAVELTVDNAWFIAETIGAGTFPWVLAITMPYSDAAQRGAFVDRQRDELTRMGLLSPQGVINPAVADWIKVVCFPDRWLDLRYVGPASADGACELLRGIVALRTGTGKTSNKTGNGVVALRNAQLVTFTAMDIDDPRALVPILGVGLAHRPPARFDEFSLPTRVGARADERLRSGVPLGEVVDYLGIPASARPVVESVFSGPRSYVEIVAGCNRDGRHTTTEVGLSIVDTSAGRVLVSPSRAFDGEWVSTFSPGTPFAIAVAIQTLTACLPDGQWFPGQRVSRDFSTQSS

## CCc1nc(N)nc(N)c1OCCCOc1ccccc1CCC(=O)O [P218]
[1]
  difference in the Tm values in the presence and absence of compound: no difference
[2]
  temperature at the inflection point (Tm) of DHFR in the presence of P218: 60.9 °C
